# Experimental data reported in paper PMC4230943, “Mimicking Hypoxia to Treat Anemia: HIF-Stabilizer BAY 85-3934 (Molidustat) Stimulates Erythropoietin Production without Hypertensive Effects” (PLoS ONE, 2014).
# What was measured:
# PHD3 = target: T1, PHD3 (Homo sapiens, UniProt Q9H6Z9); experiment: Prolyl hydroxylase assay (Eu-VBC binding to hydroxylated HIF-1α 556–574 peptide); format: biochemical; settings: 20 µM 2-oxoglutarate, 10 µM Fe2+, 2 mM ascorbate
# T1 construct: made in house; host or cells: Sf9 insect cells (baculovirus, pBacPAC transfer vectors)
# T1 sequence (Q9H6Z9 whole entry): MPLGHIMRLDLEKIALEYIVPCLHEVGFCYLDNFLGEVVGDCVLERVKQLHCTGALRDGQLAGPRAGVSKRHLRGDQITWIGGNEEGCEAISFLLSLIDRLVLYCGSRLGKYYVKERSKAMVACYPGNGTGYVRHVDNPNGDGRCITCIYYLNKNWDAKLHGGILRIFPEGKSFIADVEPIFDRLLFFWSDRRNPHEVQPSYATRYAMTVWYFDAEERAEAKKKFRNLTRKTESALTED
# Method: (§1) Recombinant human HIF-PHs were purified from Sf9 insect cell lysates. After infection with the recombinant virus stocks, generated via cloning of the respective cDNAs into pBacPAC transfer vectors (Clontech Laboratories), Sf9 cells were incubated for 48 h at 27°C with continuous shaking. Expression of the recombinant protein was confirmed by SDS-PAGE and western blot analysis of the expressed proteins. The lysate was centrifuged at 75,000 g at 4°C for 30 min and the supernatant containing the soluble HIF-PHs was incubated for 1 h at 2–8°C with CM Sepharose. After several wash steps, bound proteins were eluted from Sepharose using a linear NaCl gradient. […]
# (§2) Hydroxylated biotinyl-HIF-1α 556–574 was incubated with Eu-VBC in 100 µl binding buffer (50 mM Tris [pH 7.5], 120 mM NaCl) for 60 min at room temperature. After washing six times with DELFIA wash buffer (PerkinElmer) and adding 100 µl enhancer solution (PerkinElmer), the amount of bound VBC was determined by measuring time-resolved fluorescence with a Tecan infinite M200 plate reader. Measurements were taken in triplicate or more, and results were expressed as means ± SEM. IC50 values were determined after curve fitting using GraphPad Prism software (GraphPad Software, La Jolla, CA, USA) applying the four-parameter logistic equation to the data sets. […]
# PHD1 = target: T2, PHD1 (Homo sapiens, UniProt Q96KS0); experiment: as above; format: biochemical; settings: 20 µM 2-oxoglutarate, 10 µM Fe2+, 2 mM ascorbate
# T2 construct: made in house; host or cells: Sf9 insect cells (baculovirus, pBacPAC transfer vectors)
# T2 sequence (Q96KS0 whole entry): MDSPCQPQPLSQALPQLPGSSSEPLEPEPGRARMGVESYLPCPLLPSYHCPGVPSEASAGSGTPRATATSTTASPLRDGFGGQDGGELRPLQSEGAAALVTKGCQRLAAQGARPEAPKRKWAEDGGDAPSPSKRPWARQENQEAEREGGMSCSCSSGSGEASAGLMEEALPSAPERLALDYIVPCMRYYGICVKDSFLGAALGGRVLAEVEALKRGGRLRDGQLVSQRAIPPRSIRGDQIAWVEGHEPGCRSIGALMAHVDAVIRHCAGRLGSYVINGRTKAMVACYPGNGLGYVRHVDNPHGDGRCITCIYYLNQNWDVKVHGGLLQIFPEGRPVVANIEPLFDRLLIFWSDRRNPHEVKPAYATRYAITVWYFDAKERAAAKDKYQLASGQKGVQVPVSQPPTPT
# Method: as §1, §2
# [1] = tested on: male Wistar rats treated with gentamicin; experiment: Gentamicin-induced kidney failure (renal anemia) model; format: in vivo, rat
# Method: Male Wistar rats were treated once daily with gentamicin (Gibco/Invitrogen) at a dose of 100 mg/kg body weight via i.p. injection on 14 consecutive days, [35]. Control animals received injections of an equal volume of 0.9% saline. After gentamicin treatment, PCV was determined and animals were distributed to the vehicle or treatment groups with respect to equal mean PCV. On day 15, BAY 85-3934 was given orally once daily at doses of 1 mg/kg, 2.5 mg/kg, 5.0 mg/kg, and 10.0 mg/kg, five times weekly.
# EPO was measured in plasma samples taken from rodents using a commercial ELISA kit (R&D Systems), according to the manufacturer’s instructions. Relative plasma EPO levels were given in picograms per milliliter. In cynomolgus monkeys, EPO was measured using a combination anti-human EPO ELISAs (R&D Systems and Roche Diagnostics), with human EPO as a standard. Values were given as units per liter. For determination of plasma prorenin from rats, a commercial ELISA (Oxford Biomedical Research) was used according to the manufacturer’s instructions. Hemoglobin in rodent blood samples was determined on a Cell-Dyn 3700 apparatus (Abbott Diagnostics). BAY 85-3934 plasma concentrations were determined after protein precipitation with acetonitrile/ammonium acetate using an internal standard, followed by separation using HPLC/mass spectrometry.
# Total RNA was extracted from shock-frozen cell or tissue samples using the TRIzol method. Integrity of obtained RNA was checked on a Bioanalyzer (Agilent Technologies). For reverse transcription, 1 µg of total RNA was digested with RNase-free DNase I (Gibco) for 15 min at room temperature, and then reverse-transcribed using Promiscript (Promega GmbH) in a total reaction volume of 40 µl according to the standard protocol of the supplier. After inactivation of the enzyme by heating to 65°C for 15 min, the obtained cDNA was diluted to a final volume of 150 µl with double-distilled water, and 4 µl used per PCR reaction. qRT-PCR, including normalization of raw data to cytosolic β-actin, was carried out as described previously. The resulting expression is given in arbitrary units.
# The effect of BAY 85-3934 on the induction of endogenous EPO production was evaluated in an animal model of impaired kidney function, the gentamicin-induced kidney failure model. A mean creatinine clearance of 30% of that of untreated animals and high expression levels of several markers of acute and chronic kidney injury were indicative of substantial renal impairment in these animals. […] The mean absolute levels of induction were lower in the gentamicin-treated animals than in the controls.
smiles,measurement,setting,value
"O=c1c(-n2ccnn2)c[nH]n1-c1cc(N2CCOCC2)ncn1 [BAY 85-3934, 2-[6-(morpholin-4-yl)pyrimidin-4-yl]-4-(1H-1,2,3-triazol-1-yl)-1,2-dihydro-3H-pyrazol-3-one]",IC50,PHD3,0.45 µM
same,IC50,PHD1,0.48 µM
same,time after onset of treatment for mean PCV to return to baseline,[1]; 2.5 mg/kg,≤ 2 weeks
same,mean PCV,"[1]; 5 mg/kg and 10 mg/kg, 5 days per week, final values higher than control, p<0.001",prevented the decline in mean PCV
same,kidney EPO mRNA expression,[1]; 4 h after oral administration,increased dose-dependently
same,plasma EPO levels,[1]; 4 h after oral administration,significantly and dose-dependently induced
same,hemoglobin values,[1]; 7 days after the start of treatment,significant dose-dependent increase
same,reticulocyte counts,"[1]; all doses, data not shown",increase in reticulocyte counts
same,doses giving significant induction of liver EPO mRNA,[1]; control group (no gentamicin),≥ 2.5 mg/kg
same,doses giving significant induction of liver EPO mRNA,[1]; gentamicin-treated animals,≥ 5 mg/kg
same,expression of other HIF target genes in kidney and liver,[1]; oral administration,no dose-response
